From paper PMC2765639 (PLoS Neglected Tropical Diseases, 2009)
Where two headings read alike, the source gives them in different places.

Assays:
human cell lines = assay: Human cell line panel (A549, HeLa, IMR-90, PC-3, MDA-MB-231); assay type: cell-based
Method: (§1) Mammalian cells were cultured and maintained according to ATCC specifications (ATCC, Manassas, VA). Cell line drug susceptibility assays were performed in final volumes of 25 µL using our previously described 384-well microtiter plate format,[39]. Briefly, for automated HTS procedures, cells (A549, IMR-90 and, HeLa, 1,000 cells; PC-3, 750 cells and; MDA-MB-231, 3,000 cells) in complete culture medium were seeded into each well of 384-well microtiter plates using a Titertek MAPC-2 bulk dispenser. Test and control compounds were added to individual wells as described above. Vehicle and positive controls were 1% DMSO and 10% DMSO, respectively (final well concentrations). Assay plates were incubated for 44–46 h at 37°C in the presence of 5% CO2 and growth inhibitory effects were determined as described above. Five µL of alamar blue reagent was added to each well and incubated for 2–4 h. Data were captured as described above.

L. major promastigotes [1] = assay: L. major promastigote drug susceptibility assay (alamar blue, 384-well); assay type: cell-based, Leishmania major; conditions: Leishmania major
Method: Promastigotes were grown in vented T75 tissue culture flasks and maintained at 28°C. Promastigote cultures were initiated at 10^5 parasites per mL and subcultured every 3–4 days. L. major promastigote counts were performed in duplicate using a hemocytometer and particle counter (Beckman Coulter, Fullerton, CA). For HTS assays, L. major promastigote cultures were harvested during exponential growth phase (∼2.0–3.0×10^7 parasites/mL) and were not maintained past passage 20.
The final test compound concentration was 10 µM with a constant DMSO concentration of 1% in each assay well.
The L. major promastigote drug susceptibility assay was performed in a final volume of 25 µL using our previously described 384-well microtiter plate format,[39]. For automated HTS procedures, L. major promastigotes (5,000 parasites/22 µL) in complete growth medium were seeded into each well of the microtiter plates using a MAPC2 bulk dispenser (Titertek, Huntsville, AL). Test and control compounds (3 µL) were added to individual wells using a Velocity 11 V-prep (Menlo Park, CA) liquid handling system, equipped with a 384-well dispensing head, followed by centrifugation at 50 g for 1 min. […] Assay plates were allowed to incubate for 44 h at 28°C in the presence of 5% CO2. Five µL of alamar blue reagent were added to each assay plate well and incubated for 4 h at 28°C with 5% CO2. Data were captured on a Molecular Devices SpectraMax M5 (excitation560; emission590). Individual assay plate Z-factors were derived from the vehicle and positive controls, and data from plates were used only if Z-factors were >0.5 [50].
The assays were performed in duplicate with a final 10-point concentration range spanning 0.01–5.00 µM.

PC-3 = assay: Mammalian cell line specificity assay (alamar blue); assay type: cell-based, human; conditions: Homo sapiens
Method: as §1, with “Briefly, for automated HTS procedures, cells (A549, IMR-90 and, HeLa, 1,000 cells; PC-3, 750 cells and; MDA-MB-231, 3,000 cells) in complete culture medium were seeded into each well of 384-well microtiter plates using a Titertek MAPC-2 bulk dispenser.” left out

IMR-90 = assay: as above; assay type: cell-based, human; conditions: Homo sapiens
Method: as §1, with “Briefly, for automated HTS procedures, cells (A549, IMR-90 and, HeLa, 1,000 cells; PC-3, 750 cells and; MDA-MB-231, 3,000 cells) in complete culture medium were seeded into each well of 384-well microtiter plates using a Titertek MAPC-2 bulk dispenser.” left out

A549 = assay: as above; assay type: cell-based, human; conditions: Homo sapiens
Method: as §1, with “Briefly, for automated HTS procedures, cells (A549, IMR-90 and, HeLa, 1,000 cells; PC-3, 750 cells and; MDA-MB-231, 3,000 cells) in complete culture medium were seeded into each well of 384-well microtiter plates using a Titertek MAPC-2 bulk dispenser.” left out

MDA-MB-231 = assay: as above; assay type: cell-based, human; conditions: Homo sapiens
Method: as §1, with “Briefly, for automated HTS procedures, cells (A549, IMR-90 and, HeLa, 1,000 cells; PC-3, 750 cells and; MDA-MB-231, 3,000 cells) in complete culture medium were seeded into each well of 384-well microtiter plates using a Titertek MAPC-2 bulk dispenser.” left out

HeLa = assay: as above; assay type: cell-based, human; conditions: Homo sapiens, HeLa, read-out: HeLa EC50 (AVE±SD)
Method: as §1, with “Briefly, for automated HTS procedures, cells (A549, IMR-90 and, HeLa, 1,000 cells; PC-3, 750 cells and; MDA-MB-231, 3,000 cells) in complete culture medium were seeded into each well of 384-well microtiter plates using a Titertek MAPC-2 bulk dispenser.” left out

L. major promastigotes [2] = assay: Flow cytometer-based growth inhibition and cytotoxicity assay; conditions: Leishmania major, 48 h, read-out: L. major promastigote EC50 (AVE±SD) Confirmation Flow Cytometry
[3] = tested on: L. major axenic amastigote-like population; assay: L. major axenic amastigote-like alamar blue assay (pH 4.9); assay type: cell-based, Leishmania major; conditions: for EC50: Leishmania major
L. major = assay: In vivo murine CL efficacy study (footpad lesion model); set-up: species or system Balb/c mice; conditions: for decrease in footpad thickness: 40 mg/kg; for reduction in footpad thickness: 160 mg/kg, vs vehicle
Method: Adult female Balb/c mice (6 to 10 week old) were obtained from (Charles River Laboratories, Wilmington, MA) and maintained as outlined by the National Institutes of Health Guide for the Care and Use of Laboratory Animals. All in vivo studies were carried out in accordance with protocols approved by the Institutional Animal Care and Use Committee (IACUC) at the University of Miami (IACUC number C01-08). Food and water were supplied ad libitum. […] Animals were examined daily to determine lesion development. […] Control mice were injected with an equivalent amount of vehicle control or amphotericin B (12.5 mg/kg). […] Mice were euthanized in a CO2 chamber at day 21.

[4] = 48 h, compounds from commercial supplier, 44 h + 4 h alamar blue, 28°C, read-out: L. major promastigote EC50 (AVE±SD) Confirmation Alamar Blue
[5] = Table S1, PMLSC library samples, 10-point 0.01–5.00 µM, read-out: EC50 Ave ± SD, Lm
[6] = PC-3, 44–46 h, alamar blue, read-out: PC-3 EC50 (AVE±SD)
[7] = IMR-90, 44–46 h, alamar blue, read-out: IMR90 EC50 (AVE±SD)
[8] = A549, 44–46 h, alamar blue, read-out: A549 EC50 (AVE±SD)
[9] = A549, Table S1, PMLSC library samples, read-out: EC50 Ave ± SD, A549
[10] = MDA-MB-231, 44–46 h, alamar blue, read-out: MDA EC50 (AVE±SD)
[11] = pH 4.9, 144 h, 32°C, read-out: L. major axenic amastigote-like EC50 (AVE±SD) Confirmation Alamar Blue

SMILES	growth inhibition of human cell lines tested (human cell lines)	EC50 (L. major promastigotes [1]; [4])	EC50 (L. major promastigotes [1]; [5])	EC50 (PC-3; [6])	EC50 (IMR-90; [7])	EC50 (A549; [8])	EC50 (A549; [9])	EC50 (MDA-MB-231; [10])	EC50 (HeLa; 44–46 h, alamar blue)	EC50 (L. major promastigotes [2])	EC50 [3, 11]	also measured
N[C@H](C(=O)O)[C@@H]1CC(Cl)=NO1 [Acivicin, reference compound]	inhibited the growth of human cell lines tested	6 ± 1 nM	177 ± 3 nM	> 50000 nM	6700 ± 400 nM	4400 ± 400 nM	> 5000 nM	> 50000 nM	3900 ± 3000 nM	40 ± 10 nM	1100 ± 60 nM	–
C[C@@H]1[C@H](O)[C@@H](C)/C=C/C=C/C=C/C=C/C=C/C=C/C=C/[C@H](O[C@@H]2O[C@H](C)[C@@H](O)[C@H](N)[C@@H]2O)C[C@@H]2O[C@](O)(C[C@@H](O)C[C@@H](O)[C@H](O)CC[C@@H](O)C[C@@H](O)CC(=O)O[C@H]1C)C[C@H](O)[C@H]2C(=O)O [Amphotericin B, reference compound]	–	210 ± 10 nM	–	> 50000 nM	8700 ± 2400 nM	> 50000 nM	–	> 50000 nM	> 50000 nM	190 ± 60 nM	380 ± 10 nM	reduction in footpad swelling (in vivo effects, summary) (L. major; summary statement in results/discussion): 85–90%; EC50 (L. major promastigotes [1]; assay optimization, read-out: EC50, L. major promastigotes, 384-well format): 207 ± 11 nM
CCN(CC)C(=S)SSC(=S)N(CC)CC [Disulfiram]	–	500 ± 50 nM	263 ± 20 nM	> 50000 nM	> 50000 nM	> 50000 nM	2160 ± 1220 nM	> 50000 nM	> 50000 nM	190 ± 60 nM	130 ± 10 nM	decrease in footpad thickness (L. major; day 14): 25%; decrease in footpad thickness (L. major; day 21): 35%; reduction in footpad thickness (L. major; day 14 post-infection): ~43%; reduction in footpad thickness (L. major; day 21 post-infection): 50%; growth inhibitory activity in axenic amastigote-like assay ([3]; pH 4.9): comparable to amphotericin B
NC(=O)c1cn([C@@H]2O[C@H](CO)[C@@H](O)[C@H]2O)c2ncnc(N)c12 [Sangivamycin, reference compound]	inhibited the growth of human cell lines tested	–	–	–	–	–	–	–	–	140 ± 20 nM	–	EC50 (L. major promastigotes [1]; read-out: EC50 Ave ± SD, Lm): 164 ± 11 nM; EC50 (PC-3; PC-3, read-out: PC-3 EC50 (AVE±SD)): > 50000 nM; EC50 (IMR-90; IMR-90, read-out: IMR90 EC50 (AVE±SD)): > 50000 nM; EC50 (A549; A549, read-out: A549 EC50 (AVE±SD)): 70 ± 20 nM; EC50 (A549; A549, read-out: EC50 Ave ± SD, A549): 72 ± 5 nM; EC50 (MDA-MB-231; MDA-MB-231, read-out: MDA EC50 (AVE±SD)): > 50000 nM; EC50 (HeLa): > 50000 nM; EC50 ([3]; 144 h, pH 4.9, read-out: L. major axenic amastigote-like EC50 (AVE±SD) Confirmation Alamar Blue): 4300 ± 300 nM
